ChEMBL document CHEMBL1134000, “Structure elucidation and conformational properties of a novel bioactive clerodane diterpene using a combination of high field NMR spectroscopy, computational analysis and X-ray diffraction” (2001)
Converted amounts (≈) assume the structure as drawn.

Assays:
Klebsiella pneumoniae = experiment: Minimum inhibitory concentration against Klebsiella pneumoniae (ATCC 13883); format: functional
[1] = system: Staphylococcus epidermidis; experiment: Minimum inhibitory concentration against Staphylococcus epidermidis (ATCC 12228); format: functional
Staphylococcus hominis = experiment: Minimum inhibitory concentration against Staphylococcus hominis (ATCC 27844); format: functional
Staphylococcus aureus = experiment: Minimum inhibitory concentration against Staphylococcus aureus (ATCC 6538); format: functional
[2] = Minimum inhibitory concentration against Pseudomonas aeruginosa; format: functional, […] aeruginosa
Escherichia coli = experiment: Minimum inhibitory concentration against Escherichia coli (ATCC 25922); format: functional

| MIC50 (Klebsiella pneumoniae) [µM] | MIC50 [1] [µM] | MIC50 (Staphylococcus hominis) [µM] | MIC50 (Staphylococcus aureus) [µM] | MIC50 [2] [µM] | MIC50 (Escherichia coli) [µM] | Compound |
| --- | --- | --- | --- | --- | --- | --- |
| 1370 (≈ 499 µg/mL) | 85 (≈ 31 µg/mL) | 85 (≈ 31 µg/mL) | 85 (≈ 31 µg/mL) | 1370 (≈ 499 µg/mL) | 1370 (≈ 499 µg/mL) | CC(=O)OCC1=CCC[C@@H]2[C@@](C)(CC[C@H](C)CC(=O)O)[C@H](C)CC[C@]12C |
| 930 (≈ 300 µg/mL) | 1240 (≈ 400 µg/mL) | 1240 (≈ 400 µg/mL) | 1240 (≈ 400 µg/mL) | 930 (≈ 300 µg/mL) | 930 (≈ 300 µg/mL) | C[C@@H](CC[C@@]1(C)[C@H](C)CC[C@]2(C)C(CO)=CCC[C@H]12)CC(=O)O |
|  | 320 (≈ 98.7 µg/mL) | 320 (≈ 98.7 µg/mL) | 320 (≈ 98.7 µg/mL) |  |  | C=C[C@](C)(O)CC[C@@H]1[C@@]2(C)CCCC(C)(C)[C@@H]2CC[C@@]1(C)O [SCLAREOL] |
| 0.6 (≈ 0.349 µg/mL) | 2.1 (≈ 1.22 µg/mL) | 2.1 (≈ 1.22 µg/mL) | 2.1 (≈ 1.22 µg/mL) |  | 0.6 (≈ 0.349 µg/mL) | CN[C@@H]1[C@H](O[C@H]2[C@H](O[C@H]3[C@H](O)[C@@H](O)[C@H](N=C(N)N)[C@@H](O)[C@@H]3N=C(N)N)O[C@@H](C)[C@]2(O)C=O)O[C@@H](CO)[C@H](O)[C@H]1O [STREPTOMYCIN] |
